According to ChEMBL document CHEMBL1153280, “Synthesis and in vitro activity of dicationic bis-benzimidazoles as a new class of anti-MRSA and anti-VRE agents” (2009):
In brackets after ≈: the same amount, converted by molar mass.

What was measured:
Format in all cases: functional
[1] = system: Streptococcus pneumoniae; assay: Antibacterial activity against Streptococcus pneumoniae ATCC 6301 by NCCLS method
[2] = system: Bacillus cereus; assay: Antibacterial activity against Bacillus cereus ATCC 11778 by NCCLS method
[3] = system: Staphylococcus aureus; assay: Antibacterial activity against multidrug-resistant Staphylococcus aureus BAA-39 by NCCLS method
[4] = system: Clostridium perfringens; assay: Antibacterial activity against Clostridium perfringens ATCC 10388 by NCCLS method
[5] = system: Staphylococcus epidermidis; assay: Antibacterial activity against Staphylococcus epidermidis ATCC 12228 by NCCLS method
[6] = system: Staphylococcus aureus; assay: Antibacterial activity against Staphylococcus aureus ATCC 29213 by NCCLS method
[7] = system: Bacteroides fragilis; assay: Antibacterial activity against Bacteroides fragilis ATCC 23745 by NCCLS method
[8] = system: Staphylococcus epidermidis; assay: Antibacterial activity against methicillin-resistant Staphylococcus epidermidis ATCC 51625 by NCCLS method
[9] = system: Enterococcus faecium; assay: Antibacterial activity against vancomycin-resistant Enterococcus faecium ATCC 700221 by NCCLS method
[10] = system: Bacillus subtilis; assay: Antibacterial activity against Bacillus subtilis ATCC 23857 by NCCLS method
[11] = system: Enterococcus faecalis; assay: Antibacterial activity against vancomycin-resistant Enterococcus faecalis ATCC 51575 by NCCLS method
[12] = system: Staphylococcus aureus; assay: Antibacterial activity against methicillin-resistant Staphylococcus aureus ATCC 33591 by NCCLS method

SMILES	MIC [1] [µg/mL]	MIC [2] [µg/mL]	MIC [3] [µg/mL]	MIC [4] [µg/mL]	MIC [5] [µg/mL]	MIC [6] [µg/mL]	MIC [7] [µg/mL]	MIC [8] [µg/mL]	MIC [9] [µg/mL]	MIC [10] [µg/mL]	MIC [11] [µg/mL]	MIC [12] [µg/mL]
CCCCNC(=N)c1ccc2[nH]c(-c3ccc(CCc4ccc(-c5nc6cc(C(=N)NCCCC)ccc6[nH]5)cc4)cc3)nc2c1	1 (≈ 1.64 µM)	4 (≈ 6.55 µM)	4 (≈ 6.55 µM)	0.5 (≈ 0.819 µM)	0.25 (≈ 0.409 µM)	4 (≈ 6.55 µM)	32 (≈ 52.4 µM)	0.5 (≈ 0.819 µM)	2 (≈ 3.27 µM)	1 (≈ 1.64 µM)	32 (≈ 52.4 µM)	2 (≈ 3.27 µM)
CCC(C)NC(=N)c1ccc2[nH]c(-c3ccc(CCc4ccc(-c5nc6cc(C(=N)NC(C)CC)ccc6[nH]5)cc4)cc3)nc2c1 (stereo not given)	0.12 (≈ 0.196 µM)	0.5 (≈ 0.819 µM)	0.5 (≈ 0.819 µM)	0.5 (≈ 0.819 µM)	< 0.06	1 (≈ 1.64 µM)	2 (≈ 3.27 µM)	0.12 (≈ 0.196 µM)	0.5 (≈ 0.819 µM)	0.25 (≈ 0.409 µM)	2 (≈ 3.27 µM)	0.25 (≈ 0.409 µM)
CC(C)NC(=N)c1ccc2[nH]c(-c3ccc(CCc4ccc(-c5nc6cc(C(=N)NC(C)C)ccc6[nH]5)nc4)cc3)nc2c1	0.12 (≈ 0.206 µM)	0.5 (≈ 0.857 µM)	8 (≈ 13.7 µM)	8 (≈ 13.7 µM)	0.25 (≈ 0.428 µM)	4 (≈ 6.85 µM)	32 (≈ 54.8 µM)	1 (≈ 1.71 µM)	1 (≈ 1.71 µM)	1 (≈ 1.71 µM)	2 (≈ 3.43 µM)	4 (≈ 6.85 µM)
N=C(NC1CC1)c1ccc2[nH]c(-c3ccc(CCc4ccc(-c5nc6cc(C(=N)NC7CC7)ccc6[nH]5)cc4)cc3)nc2c1	< 0.06	0.25 (≈ 0.432 µM)	16 (≈ 27.6 µM)	1 (≈ 1.73 µM)	0.12 (≈ 0.207 µM)	8 (≈ 13.8 µM)	32 (≈ 55.3 µM)	0.25 (≈ 0.432 µM)	1 (≈ 1.73 µM)	1 (≈ 1.73 µM)	32 (≈ 55.3 µM)	8 (≈ 13.8 µM)
CC(C)NC(=N)c1ccc2[nH]c(-c3ccc(CCc4ccc(-c5nc6cc(C(=N)NC(C)C)ccc6[nH]5)cn4)cc3)nc2c1	8 (≈ 13.7 µM)	8 (≈ 13.7 µM)	8 (≈ 13.7 µM)	0.5 (≈ 0.857 µM)	2 (≈ 3.43 µM)	16 (≈ 27.4 µM)	16 (≈ 27.4 µM)	4 (≈ 6.85 µM)	16 (≈ 27.4 µM)	32 (≈ 54.8 µM)	4 (≈ 6.85 µM)	8 (≈ 13.7 µM)
CC(C)NC(=N)c1ccc2[nH]c(-c3ccc(CCc4ccc(-c5nc6cc(C(=N)NC(C)C)ccc6[nH]5)s4)cc3)nc2c1	–	0.25 (≈ 0.425 µM)	0.5 (≈ 0.849 µM)	0.25 (≈ 0.425 µM)	0.12 (≈ 0.204 µM)	1 (≈ 1.7 µM)	4 (≈ 6.79 µM)	0.12 (≈ 0.204 µM)	–	0.5 (≈ 0.849 µM)	0.5 (≈ 0.849 µM)	0.5 (≈ 0.849 µM)
CC(C)NC(=N)c1ccc2[nH]c(-c3ccc(CCc4cc(-c5nc6cc(C(=N)NC(C)C)ccc6[nH]5)cs4)cc3)nc2c1	0.12 (≈ 0.204 µM)	0.25 (≈ 0.425 µM)	1 (≈ 1.7 µM)	0.25 (≈ 0.425 µM)	–	1 (≈ 1.7 µM)	1 (≈ 1.7 µM)	0.25 (≈ 0.425 µM)	0.25 (≈ 0.425 µM)	0.5 (≈ 0.849 µM)	1 (≈ 1.7 µM)	0.25 (≈ 0.425 µM)
N=C(N)c1ccc2[nH]c(-c3ccc(CCc4ccc(-c5nc6cc(C(=N)N)ccc6[nH]5)cc4)cc3)nc2c1	> 32	> 32	> 32	> 32	4 (≈ 8.02 µM)	> 32	> 32	32 (≈ 64.2 µM)	32 (≈ 64.2 µM)	32 (≈ 64.2 µM)	> 32	> 32
CC(C)NC(=N)c1ccc2[nH]c(-c3ccc(CCc4ccc(-c5nc6ccccc6[nH]5)cc4)cc3)nc2c1	> 32	32 (≈ 64.2 µM)	> 32	1 (≈ 2.01 µM)	4 (≈ 8.02 µM)	> 32	> 32	8 (≈ 16 µM)	16 (≈ 32.1 µM)	> 32	> 32	> 32
CC(C)NC(=N)c1ccc(CCc2ccc(-c3nc4cc(C(=N)NC(C)C)ccc4[nH]3)cc2)cc1	0.12 (≈ 0.257 µM)	0.5 (≈ 1.07 µM)	8 (≈ 17.1 µM)	> 32	0.25 (≈ 0.536 µM)	4 (≈ 8.57 µM)	32 (≈ 68.6 µM)	1 (≈ 2.14 µM)	1 (≈ 2.14 µM)	1 (≈ 2.14 µM)	2 (≈ 4.29 µM)	4 (≈ 8.57 µM)
c1cc(-c2nc3cc(C4=NCCN4)ccc3[nH]2)ccc1CCc1ccc(-c2nc3cc(C4=NCCN4)ccc3[nH]2)cc1	> 64	> 64	> 64	> 64	> 64	> 64	> 64	> 64	> 64	> 64	> 64	> 64
N=C(NC1CCCC1)c1ccc2[nH]c(-c3ccc(CCc4ccc(-c5nc6cc(C(=N)NC7CCCC7)ccc6[nH]5)cc4)cc3)nc2c1	0.25 (≈ 0.394 µM)	0.5 (≈ 0.788 µM)	1 (≈ 1.58 µM)	4 (≈ 6.3 µM)	< 0.06	1 (≈ 1.58 µM)	> 32	0.12 (≈ 0.189 µM)	0.25 (≈ 0.394 µM)	1 (≈ 1.58 µM)	2 (≈ 3.15 µM)	0.5 (≈ 0.788 µM)
CC(C)NC(=N)c1ccc2[nH]c(-c3ccc(CCc4ccc(-c5nc6cc(C(=N)NC(C)C)ccc6[nH]5)cc4)cc3)nc2c1	< 0.06	0.12 (≈ 0.206 µM)	0.5 (≈ 0.858 µM)	0.25 (≈ 0.429 µM)	< 0.06	0.25 (≈ 0.429 µM)	0.5 (≈ 0.858 µM)	0.125 (≈ 0.214 µM)	0.12 (≈ 0.206 µM)	0.12 (≈ 0.206 µM)	0.25 (≈ 0.429 µM)	0.25 (≈ 0.429 µM)
N=C(c1ccc2[nH]c(-c3ccc(CCc4ccc(-c5nc6cc(C(=N)N7CCCC7)ccc6[nH]5)cc4)cc3)nc2c1)N1CCCC1	> 32	1 (≈ 1.65 µM)	0.5 (≈ 0.824 µM)	2 (≈ 3.3 µM)	0.25 (≈ 0.412 µM)	0.5 (≈ 0.824 µM)	2 (≈ 3.3 µM)	0.25 (≈ 0.412 µM)	2 (≈ 3.3 µM)	2 (≈ 3.3 µM)	16 (≈ 26.4 µM)	0.25 (≈ 0.412 µM)
COc1ccc(CCc2ccc(-c3nc4ccc(C(=N)NC(C)C)cc4[nH]3)cc2)cc1	8 (≈ 19.4 µM)	4 (≈ 9.7 µM)	8 (≈ 19.4 µM)	16 (≈ 38.8 µM)	4 (≈ 9.7 µM)	4 (≈ 9.7 µM)	> 32	4 (≈ 9.7 µM)	8 (≈ 19.4 µM)	4 (≈ 9.7 µM)	32 (≈ 77.6 µM)	4 (≈ 9.7 µM)
O=C(O)c1cn(C2CC2)c2cc(N3CCNCC3)c(F)cc2c1=O [CIPROFLOXACIN]	–	≤ 0.12	8 (≈ 24.1 µM)	–	≤ 0.12	0.5 (≈ 1.51 µM)	0.5 (≈ 1.51 µM)	≤ 0.12	> 64	≤ 0.12	0.5 (≈ 1.51 µM)	≤ 0.12
CC1(C)S[C@@H]2[C@H](NC(=O)Cc3ccccc3)C(=O)N2[C@H]1C(=O)O [PENICILLIN G]	< 0.06	> 4	> 32	≤ 0.06	32 (≈ 95.7 µM)	1 (≈ 2.99 µM)	4 (≈ 12 µM)	32 (≈ 95.7 µM)	> 32	< 0.06	4 (≈ 12 µM)	> 32
CN[C@H](CC(C)C)C(=O)N[C@H]1C(=O)N[C@@H](CC(N)=O)C(=O)N[C@H]2C(=O)N[C@H]3C(=O)N[C@H](C(=O)N[C@H](C(=O)O)c4cc(O)cc(O)c4-c4cc3ccc4O)[C@H](O)c3ccc(c(Cl)c3)Oc3cc2cc(c3O[C@@H]2O[C@H](CO)[C@@H](O)[C@H](O)[C@H]2O[C@H]2C[C@](C)(N)[C@H](O)[C@H](C)O2)Oc2ccc(cc2Cl)[C@H]1O [VANCOMYCIN]	1 (≈ 0.69 µM)	–	–	0.12 (≈ 0.0828 µM)	–	–	4 (≈ 2.76 µM)	–	> 64	0.12 (≈ 0.0828 µM)	> 64	–
